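Grown in 96-well plates, cells were treated for 48 hours with each compound at five concentrations. Insufficient inhibition: endpoint recorded as highest concentration tested. GI50 = concentration required for 50% inhibition of growth.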 Activity calls are given as the source filed them. Rule as the data show it: active = GI50 up to about 1.1 µM and inactive = higher. Residues, ends and D or L forms follow the SMILES beside them. *: point of attachment. X38 = O=C(c1ccc(-c2ccc(Cl)cc2Cl)o1)*

Holding throughout (assay): NCI anticancer screen, dose series, 48 h
The test system of assay [1] is PC-3.
Assay [2] concerns MDA-MB-231.
The test system of assay [3] is DU-145.
Assay [4] has as its system ACHN.
For assay [5], the system named is COLO 205.
For assay [6], the system named is K562.
The test system of assay [7] is Hs-578T.
Assay [8] concerns NCI-H226.
In assay [9] the test system is NCI-H522.
The test system of assay [10] is UACC-257.
For assay [11], the system named is T47D.
Assay [12] deals with HCT-15.
The test system of assay [13] is U-251.
Assay [14] relates to BT-549.
In assay [15] the test system is HCT-116.
In assay [16] the test system is SNB-19.
Assay [17] concerns MDA-MB-435.
The subject of assay [18] is SR.
The subject of assay [19] is NCI-H23.
Assay [20] deals with Malme-3M.

For the compound `CC(=O)N(C)C(C(=O)N1CC(C)CC1C(=O)N(C)C1C(=O)NC(CC(C)C)C(=O)N2CC(C)CC2C(=O)NC(CC(C)C)C(=O)N(C)C(C(C)C)C(=O)N2CCCC2C(=O)N(C)C(CC(C)C)C(=O)NCC(=O)OC1C)C(C)C` (configuration not stated), the GI50 in assay [1], in assay [2], in assay [3], in assay [4], in assay [5] and in assay [6] was > 100 µM (inactive) each time. For the same compound, the GI50 was > 100 µM (inactive) in [7]; > 100 µM (inactive) in assay [8]; > 100 µM (inactive) in assay [9]; > 100 µM (inactive) in assay [10]; > 100 µM (inactive) in assay [11]; over 100 µM in assay [12]. Further, the GI50 in [13], in [14], in assay [15], in assay [16], in assay [17] and in [18] was > 100 µM (inactive) in each case. The GI50 in assay [19] was > 100 µM (inactive).

`COc1ccc(NC=O)c(C(=O)CCNC(C)=O)c1`: the GI50 in assay [1], in [2], in [3], in assay [4], in [5] and in assay [6] was > 100 µM (inactive) in each case. Besides, the GI50 in assay [7] is > 100 µM (inactive); in assay [8], > 100 µM (inactive); in assay [9], > 100 µM (inactive); in [10] it was > 100 µM (inactive); in assay [11], > 100 µM (inactive); in [12] it was over 100 µM. Also, the GI50 in assay [13], in assay [14], in assay [15], in assay [16], in [17] and in assay [18] was > 100 µM (inactive) in each case. Besides, the GI50 in [19] was > 100 µM (inactive).

As to `COC(=O)c1c(C)cccc1CC1Cc2c(C)cccc2C1=O` (configuration not stated), the GI50 in assay [1] was 34.4 µM (inactive); in assay [2], 32.4 µM (inactive); in [3] it was 60.1 µM (inactive); in assay [4], 35.7 µM (inactive); in assay [5], 21.2 µM (inactive); in assay [20] it was 21.6 µM (inactive). For the same compound, the GI50 in assay [6] is 29.6 µM (inactive); in [7], 35.3 µM (inactive); in assay [8], 20.6 µM (inactive); in assay [9], 13.2 µM (inactive); in assay [10], 27.8 µM (inactive); in assay [11], 27.5 µM (inactive). In addition, the GI50 is 25.8 µM in [12]; 40 µM (inactive) in assay [13]; 35.9 µM (inactive) in [14]; 25.9 µM (inactive) in [15]; 48.3 µM (inactive) in assay [16]; 21.7 µM (inactive) in assay [17]. Moreover, the GI50 in assay [19] is 25.8 µM (inactive).

Regarding `Cn1ncc2[nH]cnc2c1=S`, the GI50 was > 100 µM (inactive) in assay [1]; > 100 µM (inactive) in assay [2]; > 100 µM (inactive) in [3]; > 100 µM (inactive) in assay [4]; 47.5 µM (inactive) in assay [5]; 50.7 µM (inactive) in [6]. The GI50 was > 100 µM (inactive) in assay [7]; > 100 µM (inactive) in assay [8]; > 100 µM (inactive) in assay [10]; > 100 µM (inactive) in [11]; over 100 µM in [12]; > 100 µM (inactive) in [13]. The GI50 in [14] is > 100 µM (inactive); in [15], > 100 µM (inactive); in assay [16], > 100 µM (inactive); in [17], > 100 µM (inactive); in [18], 26.7 µM (inactive); in [19], > 100 µM (inactive).

In the case of `COc1cc(-c2cn(S(=O)(=O)c3ccc(C)cc3)c3ccccc23)nc(-c2cn(S(=O)(=O)c3ccc(C)cc3)c3ccccc23)n1`, the GI50 in assay [1] was 0.773 µM (active); in [2], 0.933 µM (active); in assay [3], 0.625 µM (active); in assay [4] it was 0.927 µM (active); in assay [5], 0.745 µM (active); in assay [6], 0.373 µM (active). The GI50 in [7] is 0.433 µM (active); in assay [8] it was 0.935 µM (active); in assay [9], 0.239 µM (active); in assay [10], 52.5 µM (inactive); in assay [11] it was > 100 µM (inactive); in assay [12], 0.592 µM. In addition, the GI50 in assay [13] is 0.354 µM (active); in [14] it was 4.85 µM (inactive); in [15], 0.385 µM (active); in [16], 0.54 µM (active); in assay [17], 0.18 µM (active); in assay [18], 0.216 µM (active). In addition, the GI50 in assay [19] was 0.245 µM (active).

For the compound `COC(=O)C(CC(C)C)NC(=O)C(Cc1ccccc1)NC(=O)C1CCCN1C(=O)C(CO)NC(=O)c1ccc(-c2ccc(Cl)cc2Cl)o1` (configuration not stated) (X38-SPFL-OMe; configuration not given here), the GI50 in assay [1] was 31.6 µM (inactive); in [2], 15.5 µM (inactive); in assay [3] it was 38 µM (inactive); in assay [4] it was 26.5 µM (inactive); in assay [5], 16 µM (inactive); in [20], 42.1 µM (inactive). For the same compound, the GI50 in [6] was 27.8 µM (inactive); in [7] it was 35.5 µM (inactive); in assay [8], 19.1 µM (inactive); in assay [9], 28.1 µM (inactive); in assay [10] it was 20.2 µM (inactive); in assay [11] it was 28.9 µM (inactive). Moreover, the GI50 is 24 µM in [12]; 21.4 µM (inactive) in [13]; 25.6 µM (inactive) in assay [14]; 22.6 µM (inactive) in assay [15]; 21.9 µM (inactive) in [16]; 28.3 µM (inactive) in assay [17]. The GI50 in [19] is 27.7 µM (inactive).

Regarding `COc1cc2oc3c(c(=O)c2c(O)c1/C=C/C(C)C)C(C=C(C)C)Oc1cc(O)ccc1-3` (configuration not stated), the GI50 was 15.6 µM (inactive) in assay [1]; 18 µM (inactive) in assay [2]; 16.3 µM (inactive) in assay [3]; 15.4 µM (inactive) in [4]; 15.1 µM (inactive) in assay [5]; 22.5 µM (inactive) in [20]. In addition, the GI50 in assay [6] was 7.6 µM (inactive); in assay [7], 19 µM (inactive); in [8], 17.9 µM (inactive); in assay [9], 16.8 µM (inactive); in [10], 18.2 µM (inactive); in assay [11] it was 16.4 µM (inactive). The GI50 in assay [12] was 15.8 µM; in [13], 16.7 µM (inactive); in [14], 10.6 µM (inactive); in [15] it was 14.4 µM (inactive); in assay [16], 16.4 µM (inactive); in assay [17], 15.9 µM (inactive). The GI50 in assay [19] is 15.7 µM (inactive).

The values are drawn from ChEMBL document CHEMBL1201862, “PubChem BioAssay data set” (2004).
